For this test, the target named is T1, human histamine receptor type 3 (Homo sapiens, UniProt Q9Y5N1).
T1 construct: expressed in transfected cells; host or cells: CHO cells
Kind of test: Effect on activity of histamine receptor type 3 (intracellular cAMP, CHO cells). Conditions: preincubation with histamine, read-out: IC50, antagonist of histamine receptor type 3. The test is classed as cell-based.

Each structure is given as a SMILES string.

T1 sequence (Q9Y5N1 whole entry): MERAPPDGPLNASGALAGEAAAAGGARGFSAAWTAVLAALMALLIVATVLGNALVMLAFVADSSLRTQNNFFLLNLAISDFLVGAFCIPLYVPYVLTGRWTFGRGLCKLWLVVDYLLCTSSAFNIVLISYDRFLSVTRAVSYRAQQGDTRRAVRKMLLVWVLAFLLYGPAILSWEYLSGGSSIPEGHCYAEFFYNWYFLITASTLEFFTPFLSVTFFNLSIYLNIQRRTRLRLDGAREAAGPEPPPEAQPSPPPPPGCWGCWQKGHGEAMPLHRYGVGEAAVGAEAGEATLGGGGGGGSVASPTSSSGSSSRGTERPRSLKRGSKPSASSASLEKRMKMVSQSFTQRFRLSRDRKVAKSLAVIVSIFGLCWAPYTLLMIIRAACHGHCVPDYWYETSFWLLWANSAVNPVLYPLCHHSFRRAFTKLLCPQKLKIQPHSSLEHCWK

In the case of `O=C(CC(=O)NCCc1cnc[nH]1)NCCc1cnc[nH]1` [Compound I, N,N′-bis(2-(1H-imidazol-5-yl)ethyl)malonamide], the half-maximal inhibitory concentration (IC50) (usually the concentration needed to halve the response being measured) was determined as 20 µM.

The record behind these values is patent US11571411B2, “Use of a bisamide derivative of malonic acid for treating allergic and other diseases in humans and animals” (PHARMENTERPRISES ALLERGY LLC, priority 2018, dated 2023).
